Source: patent US20230203506A1, “LACTIC ACID OPTICAL PROBE, PREPARATION METHOD THEREFOR AND APPLICATION THEREOF” (East China University of Science and Technology, priority 2019, published 2023)

assay: Lactate concentration-gradient titration of purified probe (ratio of 420 nm to 485 nm excitation, 528 nm emission); format: binding; conditions: ratio 420 nm/485 nm excitation
Source text: (§1) 6. […] The fluorescence excitation and emission determination of the samples were done using a multifunctional fluorescence microplate reader.

Substance	magnitude of change
P189C/P190Y: LldR(80-258)-185/189-cpYFP mutant	4.3 fold

same assay, conditions: ratio 420 nm/485 nm excitation, read-out: Kd (binding constant)

Substance	Kd
P189C/P190Y: LldR(80-258)-185/189-cpYFP mutant	41 µM

assay: Lactate response detection of purified probe (signal with 10 mM lactate divided by signal without lactate); format: biochemical; conditions: M185 saturation mutants of two-site mutants of LldR(80-258)-185/189-cpYFP

Substance	Response of the three-site mutants to lactate
M185L/P189H/P190D: three-site mutant of LldR(80-258)-185/189-cpYFP	15.3
M185S/P189H/P190D: three-site mutant of LldR(80-258)-185/189-cpYFP	7.0
M185V/P189H/P190D: three-site mutant of LldR(80-258)-185/189-cpYFP	6.2
M185F/P189H/P190D: three-site mutant of LldR(80-258)-185/189-cpYFP	8.0
M185A/P189M/P190D: three-site mutant of LldR(80-258)-185/189-cpYFP; Table 4 row printed WD	8.4
M185L/P189M/P190D: three-site mutant of LldR(80-258)-185/189-cpYFP; Table 4 row printed WD	5.6

assay: as above; format: biochemical; conditions: detection signal with 10 mM lactate divided by signal without lactate; mutants of LldR(80-258)-185/189-cpYFP
Procedure: 4. After purified proteins were subjected to SDS-PAGE, probes were diluted to a protein solution having a final concentration of 5-10 μM using assay buffer (100 mm HEPES, 100 mM NaCl, pH 7.3) or phosphate buffer PBS.
as §1
Mutants of the two sites, 189 and 190, were constructed on the basis of LldR(80-258)-185/189-cpYFP. Plasmid pCDFDuet-LldR(80-258)-185/189-cpYFP was linearized by reverse PCR, mutations were introduced at mutation sites by primers, and the obtained PCR products was ligated by adding phosphorus with PNK, T4 DNA ligase, and PEG4000, transformed into BL21 (DE3), and then screened. […] Exemplary nucleic acid sequences were shown in SEQ ID No: 31 (LldR(80-258)-185/189-P189F/P190D-cpYFP).

Substance	Responses to lactate for 189 mutant versus 190 mutant
P189/P190(WT): lactate optical probe, cpYFP inserted at 185/189 of LldR(80-258), unmutated	0.2
P189F/P190D: LldR(80-258)-185/189-cpYFP mutant	13.4
P189C/P190F: LldR(80-258)-185/189-cpYFP mutant	2.3
P189R/P190I: LldR(80-258)-185/189-cpYFP mutant	3.5
P189S: LldR(80-258)-185/189-cpYFP mutant	3.3
P189C/P190Y: LldR(80-258)-185/189-cpYFP mutant	4.0
P189F/P190H: LldR(80-258)-185/189-cpYFP mutant	3.7
P189H/P190D: LldR(80-258)-185/189-cpYFP mutant	8.9
P189N/P190Y: LldR(80-258)-185/189-cpYFP mutant	3.1
P189N/P190F: LldR(80-258)-185/189-cpYFP mutant	2.3
P189M/P190D: LldR(80-258)-185/189-cpYFP mutant	7.0
P189H/P190R: LldR(80-258)-185/189-cpYFP mutant	3.2
P189N: LldR(80-258)-185/189-cpYFP mutant	2.1
